Experimental data: US20200171066A1, “EYE DROP FOR TREATING DRY EYE” (Xiamen University, priority 2017, published 2020)

How the values were obtained:
[1] = tested on: Patients with Sjogren's syndrome; settings: 0.03%; cited from earlier work
NF-κB signaling pathway = settings: 0.025% applied topically to the eye, mice; cited from earlier work
dry eye dogs = settings: 0.02% drops applied topically in the eye; cited from earlier work
[2] = cited from earlier work
[3] = tested on: corneal epithelial barrier of mice suffering dry eye; experiment: Corneal OGD fluorescent staining in dry eye mouse model; format: in vivo, C57BL/6 mice; settings: 0.1% eye drop, 4 times a day on both eyes
Protocol: (§1) 1. Establish a dry eye mouse model: Female C57BL/6 mice of 10-12 weeks old were injected subcutaneously with scopolamine 0.5 mg/0.2 mL four times a day and kept in a dry environment for 5 days (RH: 30±3; T: 23-25° C.); normal control group was maintained in normal environment (RH: 60%-80%; T: 23-25° C.).
(§2) Preparation of mizoribine eye drop: dry eye treatment group used 0.1% of mizoribine eye drop prepared by the method of Embodiment 1.
(§3) Eye drop method: Eye drop treatment was performed using the above-mentioned eye drops 4 times a day on both eyes.
1. Corneal OGD fluorescent staining: mice were sacrificed, and 0.5 μl of Oregongreen-dextran (OGD) was dropped into the conjunctival sac of mice with a pipette, manual blinking was performed, and the conjunctival sac was washed with 1 mL of normal saline 1 minute later. The corneal epithelial fluorescence staining was observed and shot under a living fluorescence microscope.

[4] = tested on: conjunctival goblet cells; experiment: PAS staining of conjunctival goblet cells in dry eye mouse model; format: in vivo, C57BL/6 mice; settings: 0.1% eye drop, compared with the dry eye group
Protocol: as §1, §2, §3
2. PAS staining of conjunctival goblet cells: Paraffin specimens of the whole eyeballs (conjunctival sac) of the mice were cut into 5 um sections and stained with periodic acid-Schiff (PAS) reagent to observe the morphology and number of conjunctival goblet cells.

[5] = tested on: conjunctival CD4+T cell infiltration; experiment: Conjunctival CD4+T cell staining in dry eye mouse model; format: in vivo, C57BL/6 mice; settings: 0.1% eye drop, compared with the dry eye group
Protocol: as §1, §2, §3
3. Conjunctival CD4+T cell staining: fixing frozen sections by acetone at −20° C. for 10 minutes, disrupting with 0.2% of Triton-X PBS for 10 minutes, and using 0.3% of H2O2 to eliminate endogenous peroxidase, blocking with 20% of normal goat serum for 45 minutes. The primary anti-CD4 was incubated for 1 hour at room temperature. After extensive washing (digestion), the biotinylated (second) antibody was incubated for 30 minutes. Finally, a Vectastain Elite ABC kit was used to develop color and stain the nucleus.

IFN-γ = experiment: Real-Time PCR of conjunctival RNA in dry eye mouse model; format: in vivo, C57BL/6 mice; settings: 0.1% eye drop, compared with the dry eye group
Protocol: as §1, §2, §3
(§4) Prepare the PCR reaction solution according to the following components:
(§5) Three-step PCR amplification standard procedure:
(§6) Stage 1: Pre-denaturation cycle number: 195° C., 30 sec.
(§7) Stage 2: number of PCR reaction cycles: 4095° C. for 5 sec. and 60° C. for 34 sec.
(§8) Stage 3: Dissolving curve
(§9) The relative expression level of the gene was analyzed by the relative Ct method, and the specific expression of the target gene was calculated by the following formula, that is to say, the relative expression level=2^−ΔΔCt; wherein −ΔΔCt=−(ΔCt, q−ΔCt, cb), ΔCt, q=Ct,x−Ct, r ΔCt, cb=Ct, cb−Ct, r, where r=reference gene, Cb=calibration value, X=target gene, and cycle threshold (C) is determined through primary signal (fluorescence).

IL-13 = experiment: as above; format: in vivo, C57BL/6 mice; settings: 0.1% eye drop, compared with the dry eye group
Protocol: as §1, §2, §3, §4, §5, §6, §7, §8, §9

IL-1β = experiment: as above; format: in vivo, C57BL/6 mice; settings: 0.1% eye drop, compared with the dry eye group
Protocol: as §1, §2, §3, §4, §5, §6, §7, §8, §9

TNF-α = experiment: as above; format: in vivo, C57BL/6 mice; settings: 0.1% eye drop, compared with the dry eye group
Protocol: as §1, §2, §3, §4, §5, §6, §7, §8, §9

Compound	tear film stability [1]	activation of NF-κB signaling pathway (NF-κB signaling pathway)	ocular surface signs of dry eye (NF-κB signaling pathway)	amount of tear secretion (dry eye dogs)	solubility in water [2]	corneal flaky staining (OGD) [3]	number of corneal punctiform staining (OGD) ([3]; compared with the dry eye group)	number of conjunctival goblet cells (PAS) [4]	proportion of brown-yellow cells (conjunctival CD4+T cells) [5]	expression of conjunctival IFN-γ (IFN-γ)	expression of conjunctival IL-13 (IL-13)	expression of conjunctival IL-1β (IL-1β)	expression of conjunctival TNF-α (TNF-α)
C=CC[C@@H]1/C=C(\C)C[C@H](C)C[C@H](OC)[C@H]2O[C@@](O)(C(=O)C(=O)N3CCCC[C@H]3C(=O)O[C@H](/C(C)=C/[C@@H]3CC[C@@H](O)[C@H](OC)C3)[C@H](C)[C@@H](O)CC1=O)[C@H](C)C[C@@H]2OC [FK506, tacrolimus]	improve tear film stability	inhibit the activation of NF-κB signaling pathway	reduce the ocular surface signs of dry eye	significantly increase	hardly soluble in water	–	–	–	–	–	–	–	–
NC(=O)c1ncn([C@@H]2O[C@H](CO)[C@@H](O)[C@H]2O)c1O [mizoribine]	–	–	–	–	–	no flaky staining was observed	significantly reduced	significant increase	significantly reduced	significantly decreased	significantly decreased	significantly decreased	significantly decreased
